Experimental findings from US10316017B2, “COT modulators and methods of use thereof” (Gilead Sciences, Inc., priority 2015, dated 2019) are described below.

SMILES strings stand for the structures.

For assay [1], the system named is TNFα production in LPS-stimulated human monocytes. The experiment in a line: Cot Monocyte TNFα Cell Based Assay. To be noted: Homo sapiens, Monocyte, TNFα in LPS-stimulated human monocytes; read-out: EC50 TNF. In short, it runs like this: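 Human monocytes (5,000 cells/well) pretreated with compound for 1 hour at 37° C (0.5% DMSO), then stimulated with 50 pg/ml LPS for 4 hours. Total TNFα measured by TR-FRET after overnight antibody incubation at room temp, expressed as percent of control between unstimulated and stimulated cells.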

Assay [2] has as its target T1, human Cot catalytic domain (30-397 amino acids) (Homo sapiens, UniProt P41279).
T1 construct: Purified recombinant human Cot catalytic domain (30-397 amino acids) was purchased from Cama Biosciences; purchased Cama Biosciences (so in the source)
The experiment in a line: High Throughput Cot Biochemical Assay (KinEASE TR-FRET). To be noted: Cot biochemical HTRF (KinEASE TR-FRET) assay; read-out: IC50 HTRF. Put shortly: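 Recombinant human Cot catalytic domain (aa 30-397), 5 nM, with 1 μM STK3 peptide and 400 μM ATP in MOPS pH 7.0 buffer with MgOAc, DTT, BSA, NP-40, glycerol, 0.1% DMSO. Phosphorylated XL665-peptide detected by Eu-[…] antibody TR-FRET.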

T1 sequence (P41279 30-397): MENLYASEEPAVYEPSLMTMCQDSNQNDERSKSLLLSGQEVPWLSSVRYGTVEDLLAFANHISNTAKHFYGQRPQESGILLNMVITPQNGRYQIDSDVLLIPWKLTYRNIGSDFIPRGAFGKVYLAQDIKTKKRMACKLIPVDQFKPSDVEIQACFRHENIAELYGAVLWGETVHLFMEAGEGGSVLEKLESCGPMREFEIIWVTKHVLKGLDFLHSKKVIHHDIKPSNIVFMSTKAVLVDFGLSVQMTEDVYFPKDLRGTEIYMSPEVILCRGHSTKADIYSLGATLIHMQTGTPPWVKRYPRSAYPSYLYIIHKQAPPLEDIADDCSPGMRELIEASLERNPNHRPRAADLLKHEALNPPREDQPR

With `N#Cc1cnc2c(Cl)cc(N[C@@H](c3ccccc3)c3cn(CCCN4CCCC4)nn3)cc2c1Nc1ccc(F)c(C#N)c1F` [Example 469, (S)-8-chloro-4-((3-cyano-2,4-difluorophenyl)amino)-6-((phenyl(1-(3-(pyrrolidin-1-yl)propyl)-1H-1,2,3-triazol-4-yl)methyl)amino)quinoline-3-carbonitrile], the half-maximal effective concentration (EC50) in assay [1] turned out to be 0.315 µM. Also, the half-inhibitory concentration (IC50) in assay [2] was 0.014 µM.
In the same order, the values of `CC(C)(C)N1CCC(n2cc([C@@H](Nc3cc(Cl)c4ncc(C#N)c(Nc5ccc(F)c(C#N)c5F)c4c3)c3ccccc3)nn2)CC1` [Example 470, (S)-6-(((1-(1-(tert-butyl)piperidin-4-yl)-1H-1,2,3-triazol-4-yl)(phenyl)methyl)amino)-8-chloro-4-((3-cyano-2,4-difluorophenyl)amino) quinoline-3-carbonitrile] are 0.608 µM and 0.013 µM.
For `CC(C)(C)N1CCC(n2cc([C@@H](Nc3cc(Cl)c4ncc(C#N)c(Nc5ccc(F)cc5C#N)c4c3)c3ccccc3)nn2)CC1` [Example 471, (S)-6-(((1-(1-(tert-butyl)piperidin-4-yl)-1H-1,2,3-triazol-4-yl)(phenyl)methyl)amino)-8-chloro-4-((2-cyano-4-fluorophenyl)amino) quinoline-3-carbonitrile], the EC50 in assay [1] turned out to be 8.64 µM. Moreover, the half-maximal inhibitory concentration (IC50) in assay [2] turned out to be 0.333 µM.
For `N#Cc1cnc2c(Cl)cc(N[C@@H](c3ccccc3)c3cn(CCCN4CCCC4)nn3)cc2c1Nc1c(F)cc(F)cc1F` [Example 472, (S)-8-chloro-6-((phenyl(1-(3-(pyrrolidin-1-yl)propyl)-1H-1,2,3-triazol-4-yl)methyl)amino)-4-((2,4,6-trifluorophenyl)amino) quinoline-3-carbonitrile], in assay [1], the EC50 turned out to be 2.36 µM. Further, the concentration for half-maximal inhibition (IC50) in assay [2] was 0.096 µM.
Take `CC(C)(C)N1CCC(n2cc([C@@H](Nc3cc(Cl)c4ncc(C#N)c(Nc5c(F)cc(F)cc5F)c4c3)c3ccccc3)nn2)CC1` [Example 473, (S)-6-(((1-(1-(tert-butyl)piperidin-4-yl)-1H-1,2,3-triazol-4-yl)(phenyl)methyl)amino)-8-chloro-4-((2,4,6-trifluorophenyl)amino) quinoline-3-carbonitrile]: the EC50 in assay [1] amounted to 0.784 µM. Further, in assay [2], the IC50 worked out at 0.059 µM.
Take `CC(C)(C)CCNc1c(C#N)cnc2c(Cl)cc(N[C@@H](c3ccccc3)c3cn(C4CCN(C(C)(C)C)CC4)nn3)cc12` [Example 474, (S)-6-(((1-(1-(tert-butyl)piperidin-4-yl)-1H-1,2,3-triazol-4 yl)(phenyl)methyl)amino)-8-chloro-4-((3,3-dimethylbutyl)amino) quinoline-3-carbonitrile]: in assay [1], the EC50 came out at 1.57 µM. For the same compound, the IC50 in assay [2] is 0.068 µM.
Turning to `Cn1cc(CNc2c(C#N)cnc3c(Cl)cc(N[C@@H](c4ccccc4)c4cn(C5CCN(C(C)(C)C)CC5)nn4)cc23)cn1` [Example 475, (S)-6-(((1-(1-(tert-butyl)piperidin-4-yl)-1H-1,2,3-triazol-4-yl)(phenyl)methyl)amino)-8-chloro-4-(((1-methyl-1H-pyrazol-4-yl)methyl)amino)quinoline-3-carbonitrile], in assay [1], the EC50 is > 10 µM. Also, the IC50 in assay [2] was determined as 0.459 µM.
As for `Cn1ccc(CNc2c(C#N)cnc3c(Cl)cc(N[C@@H](c4ccccc4)c4cn(C5CCN(C(C)(C)C)CC5)nn4)cc23)n1` [Example 476, (S)-6-(((1-(1-(tert-butyl)piperidin-4-yl)-1H-1,2,3-triazol-4-yl)(phenyl)methyl)amino)-8-chloro-4-(((1-methyl-1H-pyrazol-3-yl)methyl)amino)quinoline-3-carbonitrile], the concentration giving a half-maximal response (EC50) in assay [1] was > 10 µM. For the same compound, the 50% inhibitory concentration (IC50) in assay [2] turned out to be 1.74 µM.
With `Cn1nccc1CNc1c(C#N)cnc2c(Cl)cc(N[C@@H](c3ccccc3)c3cn(C4CCN(C(C)(C)C)CC4)nn3)cc12` [Example 477, (S)-6-(((1-(1-(tert-butyl)piperidin-4-yl)-1H-1,2,3-triazol-4-yl)(phenyl)methyl)amino)-8-chloro-4-(((1-methyl-1H-pyrazol-5-yl)methyl)amino)quinoline-3-carbonitrile], the EC50 in assay [1] came out at 6.65 µM. In addition, the concentration for half-maximal inhibition (IC50) in assay [2] was 0.243 µM.
In the same order, the values of `Cn1cc(Nc2c(C#N)cnc3c(Cl)cc(N[C@@H](c4ccccc4)c4cn(C5CCN(C(C)(C)C)CC5)nn4)cc23)cn1` [Example 478, (S)-6-(((1-(1-(tert-butyl)piperidin-4-yl)-1H-1,2,3-triazol-4-yl)(phenyl)methyl)amino)-8-chloro-4-((1-methyl-1H-pyrazol-4-yl)amino)quinoline-3-carbonitrile] are 5.53 µM and 1.05 µM.
With `CC(C)(C)N1CCC(n2cc([C@@H](Nc3cc(Cl)c4ncc(C#N)c(Nc5cccc6[nH]c(=O)[nH]c56)c4c3)c3ccccc3)nn2)CC1` [Example 479, (S)-6-(((1-(1-(tert-butyl)piperidin-4-yl)-1H-1,2,3-triazol-4-yl)(phenyl)methyl)amino)-8-chloro-4-((2-oxo-2,3-dihydro-1H-benzo[d]imidazol-4-yl)amino) quinoline-3-carbonitrile], in assay [1], the concentration for a half-maximal effect (EC50) was > 10 µM. Also, the IC50 in assay [2] amounted to 5.28 µM.
Regarding `COc1ncccc1Nc1c(C#N)cnc2c(Cl)cc(N[C@@H](c3ccccc3)c3cn(C4CCN(C(C)(C)C)CC4)nn3)cc12` [Example 480, (S)-6-(((1-(1-(tert-butyl)piperidin-4-yl)-1H-1,2,3-triazol-4-yl)(phenyl)methyl)amino)-8-chloro-4-((2-methoxypyridin-3-yl)amino)quinoline-3-carbonitrile], the EC50 in assay [1] came out at 8.51 µM. Moreover, the IC50 in assay [2] was 1.22 µM.
For `CC[C@@H](Nc1c(C#N)cnc2c(Cl)cc(N(CC)[C@@H](c3ccccc3)c3c[nH]nn3)cc12)c1ccccc1` [Example 481, 8-chloro-6-(ethyl((S)-phenyl(1H-1,2,3-triazol-4-yl)methyl)amino)-4-(((R)-1-phenylpropyl)amino) quinoline-3-carbonitrile], the EC50 in assay [1] was 8.8 µM. The concentration for half-maximal inhibition (IC50) in assay [2] was 0.298 µM.
For `Cn1cc(Nc2c(C#N)cnc3c(Cl)cc(N[C@@H](c4ccccc4)c4c[nH]nn4)cc23)ccc1=O` [Example 482, (S)-8-chloro-4-((1-methyl-6-oxo-1,6-dihydropyridin-3-yl)amino)-6-((phenyl (1H-1,2,3-triazol-4-yl)methyl)amino)quinoline-3-carbonitrile], in assay [1], the EC50 is > 10 µM. Moreover, the IC50 in assay [2] was found to be 0.332 µM.
The matching figures for `Cn1cc(Nc2c(C#N)cnc3c(Cl)cc(N[C@@H](c4ccccc4)c4cn(C5COC5)nn4)cc23)ccc1=O` [Example 483, (S)-8-chloro-4-((1-methyl-6-oxo-1,6-dihydropyridin-3-yl)amino)-6-(((1-(oxetan-3-yl)-1H-1,2,3-triazol-4-yl)(phenyl)methyl)amino) quinoline-3-carbonitrile]: > 10 µM and 0.387 µM.
For the compound `Cn1cc(Nc2c(C#N)cnc3c(Cl)cc(N[C@@H](c4ccccc4)c4cn(C5CCN(C(C)(C)C)CC5)nn4)cc23)ccc1=O` [Example 484, (S)-6-(((1-(1-(tert-butyl)piperidin-4-yl)-1H-1,2,3-triazol-4-yl)(phenyl)methyl)amino)-8-chloro-4-((1-methyl-6-oxo-1,6-dihydropyridin-3-yl)amino)quinoline-3-carbonitrile], the concentration giving a half-maximal response (EC50) in assay [1] was > 10 µM. For the same compound, the IC50 in assay [2] worked out at 0.371 µM.
In the same order, the values of `C[C@@H](Nc1c(C#N)cnc2c(Cl)cc(N[C@@H](c3ccccc3)c3cn(C4CCN(C(C)(C)C)CC4)nn3)cc12)C(C)(C)C` [Example 485, 6-(((S)-(1-(1-(tert-butyl)piperidin-4-yl)-1H-1,2,3-triazol-4-yl)(phenyl)methyl)amino)-8-chloro-4-(((R)-3,3-dimethylbutan-2-yl)amino) quinoline-3-carbonitrile] are 7.24 µM and 0.306 µM.
Regarding `C[C@H](Nc1c(C#N)cnc2c(Cl)cc(N[C@@H](c3ccccc3)c3cn(C4CCN(C(C)(C)C)CC4)nn3)cc12)C(C)(C)C` [Example 486, 6-(((S)-(1-(1-(tert-butyl)piperidin-4-yl)-1H-1,2,3-triazol-4-yl)(phenyl)methyl)amino)-8-chloro-4-(((S)-3,3-dimethylbutan-2-yl)amino)quinoline-3-carbonitrile], in assay [1], the EC50 was determined as 0.637 µM. The IC50 in assay [2] came out at 0.024 µM.
As for `CC(C)(C)N1CCC(n2cc([C@@H](Nc3cc(Cl)c4ncc(C#N)c(N[C@@H]5CCCc6ccccc65)c4c3)c3ccccc3)nn2)CC1` [Example 487, 6-(((S)-(1-(1-(tert-butyl)piperidin-4-yl)-1H-1,2,3-triazol-4-yl)(phenyl)methyl)amino)-8-chloro-4-(((R)-1,2,3,4-tetrahydronaphthalen-1-yl)amino)quinoline-3-carbonitrile], the EC50 in assay [1] worked out at 6.78 µM. Besides, the IC50 in assay [2] is 2.25 µM.
For the compound `CC(C)(C)N1CCC(n2cc([C@@H](Nc3cc(Cl)c4ncc(C#N)c(N[C@H]5CCCc6ccccc65)c4c3)c3ccccc3)nn2)CC1` [Example 488, 6-(((S)-(1-(1-(tert-butyl)piperidin-4-yl)-1H-1,2,3-triazol-4-yl)(phenyl)methyl)amino)-8-chloro-4-(((S)-1,2,3,4-tetrahydronaphthalen-1-yl)amino)quinoline-3-carbonitrile], the EC50 in assay [1] is 9.01 µM. In addition, in assay [2], the IC50 turned out to be 1.3 µM.
